# Results published in patent US20170304177A1, “USE OF ISOSORBIDE ESTER AND N-ACYLATED AMINO ACID DERIVATIVES AS ANTI-AGEING AGENT FOR THE HUMAN SKIN” (SOCIETE D'EXPLOITATION DE PRODUITS POUR LES INDUSTRIES …, priority 2014, published 2017).
# Test system: Normal human fibroblasts
# Assay: In vitro migration of normal human fibroblasts (Oris migration plates, mitomycin C pretreatment, 40 h incubation, Calcein AM labelling)
# Assay type: cell-based
# Conditions: for (Dmigr) mean migration distance of the cells: 40 h, mean ± SD of quadruplicates; for [(Dmigr) − (Dmigr)control]/(Dmigr)control, percentage of migratory effect relative to the control: vs FCS culture control
# Source text: The fibroblast migration test is a test commonly used in the cosmetics and pharmaceutical sector and is especially described in the international patent application published under the number WO 2010/056908 A1. It allows in vitro reproduction of the phenomenon of fibroblast migration; a decrease in the migratory capacities of the fibroblasts being reported as associated with aging of the skin (1) (4).
# Normal human fibroblasts at the R5 passage were amplified in a T75 culture flask and then inoculated at 25 000 cells/well in specific culture plates. These plates are dedicated to migration (Oris™ from Platypus), integrating a central zone without initial deposition of cells (stoppers). After 96 hours of plate amplification and 2 hours before the treatment, all the wells were treated with mitomycin C (2 hours at 10 μg/ml), so as to stop the cell proliferation, and thus to observe only the migration phenomenon. The stoppers were removed, and the references, the products or standard medium for fibroblasts containing 2% fetal calf serum (FCS) were applied to the cells under 100 μl, and then incubated for 40 hours at 37° C. under 5% CO2. Each condition was performed in quadruplicate.
# On conclusion of the incubation, the cells were labeled with Calcein AM (5 μM, 20 minutes at 37° C.), so as to visualize the viable cells by fluorescence (revelation of the cytoplasm). Photos were taken, after having inserted a black screen under the culture plates, so as to visualize only the zone where the cells were not deposited. Thus, only the cells which had migrated were photographed (×4 objective lens; with a ×0.7 reducer on the camera adapter). The mean migration distance of the cells (Dmigr) was measured with NIS-Elements-BR 3.0 (4 cells). The means and standard deviations of the distances were calculated on the quadruplicates. The percentages of migratory effect relative to the control, and also the statistics (Student test) were also calculated.
substance,measurement,setting,value
Epidermal Growth Factor (EGF),(Dmigr) mean migration distance of the cells,EGF 10 ng/ml,203 ± 20 μm
same,"[(Dmigr) − (Dmigr)control]/(Dmigr)control, percentage of migratory effect relative to the control",EGF 10 ng/ml,+21%
same,(Dmigr) mean migration distance of the cells,EGF 50 ng/ml,212 ± 8 μm
same,"[(Dmigr) − (Dmigr)control]/(Dmigr)control, percentage of migratory effect relative to the control",EGF 50 ng/ml,+26%
same,Effect on migration distance of normal human fibroblasts (in words),"summary statement on Table 1, EGF at 10 and 50 ng/ml, compositions at 5 and 10 μg/ml",increase in the migration distance
